“Also recorded” adds a separate entry of the source.
How the values were obtained:
[1] = system: HDAC5-bound PKD; type: biochemical, rat; settings: NRVMs infected with Ad-FLAG-HDAC5; PMA 30 min
[2] = system: nuclear export of HDAC5 in COS cells; assay: GFP-HDAC5 nuclear export in transfected COS cells (fluorescence microscopy); type: cell-based
Method: (§1) FIGS. 1A-D—PKC-dependent nuclear export of HDAC5. FIG. 1A. COS cells were cultured on 6-well dishes, transfected with a GFP-HDAC5 expression vector (1 μg) and stimulated with the indicated compounds, as described in Materials and Methods. Sixty minutes after addition of compounds, GFP-HDAC5 distribution was determined by fluorescence microscopy. […] FIG. 1B. COS cells were transfected with expression vectors encoding FLAG-tagged versions of either HDAC5 or an HDAC5 mutant harboring alanines in place of serines 259 and 498 (HDAC5 S259/498A) (1 μg each). Cells were stimulated with PMA for 60 min and HDAC5 distribution was determined by indirect immunofluorescence with anti-FLAG primary antibody and fluorecein-conjugated secondary antibody. HDAC5 259/498A is refractory to PMA stimulation. FIG. 1C. COS cells transfected with GFPHDAC5 encoding expression vector (1 μg) and stimulated with PMA for the indicated times. FIG. 1D. COS cells were transiently transfected with expression vectors encoding FLAG-tagged versions of HDAC5 or HDAC5 S259/498A (1 μg each). Cells were pretreated with the PKC inhibitor bisindolylmaleimide (Bis I; 10 μM) for 30 minutes and stimulated with PMA for 30 min, as indicated. Association of FLAG-HDAC5 with endogenous 14-3-3 was detected by sequential immunoprecipitation and immunoblotting.
Cell culture and transfection assays. COS cells were maintained in DMEM with FBS (10%), L-glutamine (2 mM), and penicillin-streptomycin. Transfection of COS cells was performed with Fugene 6 (Roche Molecular Biochemicals) according to manufacturer's instructions. For HDAC localization experiments, cells were treated 16-24 hours after transfection with PMA (100 nM), ionomycin […], 8-Br-cAMP (1 mM), pCPT-GMP (1 mM), or anisomycin (1 mM). Where noted, specific protein kinase inhibitors were added 30 min prior to the addition of any chemical stimulus. GFP-HDAC5 was visualized with standard fluorescent microscopic techniques. For indirect immunofluorescence of FLAG-HDAC5, COS cells were seeded on glass coverslips, transfected, and treated as above. After specific treatment, cells were fixed with buffered formalin (10%) and stained in PBS containing BSA (3%) and Nonidet P-40 (0.1%). Flag M2 antibody (Sigma) was used at a concentration of 1:200. Secondary fluoresceine-conjugated antibody (Vector Laboratories) was also used at a concentration of 1:200. Staining of cardiomyocytes for sarcomeres and atrial natriuretic factor (ANF) was performed by indirect immunofluorescence detection as above with antibodies directed against sarcomeric α-actinin (Sigma) and ANF (Peninsula Laboratories), respectively.

[3] = system: association of 14-3-3 with HDAC5; assay: Co-immunoprecipitation of FLAG-HDAC5 with endogenous 14-3-3 in COS cells; type: cell-based; settings: FLAG-HDAC5, PMA 30 min
Method: as §1, with “COS cells were transiently transfected with expression vectors encoding FLAG-tagged versions of HDAC5 or HDAC5 S259/498A (1 μg each). Cells were pretreated with the PKC inhibitor bisindolylmaleimide (Bis I; 10 μM) for 30 minutes and stimulated with PMA for 30 min, as indicated.” left out
Co-immunoprecipitation assays. […] Associated PKD was detected by immunoblotting with rabbit polyclonal antibodies against either PKD-1, PKD-1 phosphorylated at serines 744 and 748, or PKD-1 phosphorylated at serine 916 (Cell Signaling Technologies) were employed at 1:1000 dilutions.

[4] = system: NRVMs; assay: ANF immunostaining of cardiomyocytes (hypertrophy marker); type: cell-based, rat; settings: PE 20 μM or PMA 100 nM, 24 hrs
Method: FIGS. 3A-C—Inhibition of PKC-mediated cardiac hypertrophy by signalresistant HDAC5. NRVMs were cultured on 6-well dishes and infected with adenoviruses (MOI=10) encoding a LacZ control (Ad-LacZ) or FLAG-tagged HDAC5 harboring alanines in place of serines 259 and 498 (Ad-HDAC5 S/A), which are required for 14-3-3-mediated nuclear export. Cells were treated with PE (20 μM) or PMA (100 nM) for 24 hrs prior to analysis. FIG. 3A. Cells were fixed and sarcomeres visualized by indirect immunofluorescence with primary antibody specific for α-actinin and fluorescein-conjugated secondary antibody. FIG. 3B. ANF protein was detected by indirect immunofluorescence with anti-ANF primary antibody. FIG. 3C. Total RNA was harvested from cells and subjected to dot blot analysis with radiolabeled oligonucleotides specific for the indicated transcripts. RNA levels were quantified using a phosphorimager and are depicted as -fold change relative to amounts in unstimulated cells infected with Ad-LacZ. Values were normalized to GAPDH controls.
Cell culture and transfection assays. COS cells were maintained in DMEM with FBS (10%), L-glutamine (2 mM), and penicillin-streptomycin. Transfection of COS cells was performed with Fugene 6 (Roche Molecular Biochemicals) according to manufacturer's instructions. […]

[5] = system: PKD; assay: In vitro kinase assay with FLAG-HDAC5 immunoprecipitated from COS cells co-transfected with PKD; type: cell-based; settings: PMA 30 min
From the text: FIGS. 5A-E—Protein kinase D is an HDAC5 kinase. FIG. 5A. Amino acid sequences surrounding the regulatory phosphorylation sites of class II HDACs. NLS: nuclear localization signal; HDAC domain: deacetylase catalytic domain. The consensus target site for PKD is shown. Leucine at position −5 relative the phosphorylation site is required for optimal PKD-directed phosphorylation of other proteins. FIG. 5B. COS cells were transfected with an expression vector encoding GFP fused to HDAC5 harboring glycines in place of leucines 254 and 493 (L254/493G). Twenty-four hrs post-transfection, cells were left untreated (control) or stimulated with PMA for 30 minutes. FIG. 5C. […] HDAC5 localization was determined 24 hrs post-transfection. FIG. 5D. […] Twenty-four hrs post-transfection, cells were treated with PMA or vehicle control for 30 min. FLAG-HDAC5 was immunoprecipitated from whole-cell protein lysates and either incorporated into an in vitro kinase assay (IVK) or resolved by SDS-PAGE for western blot analysis to detect associated PKD, as indicated. Phosphorylated HDAC5 was resolved by SDS-PAGE and detected by autoradiography. FIG. 5E. Mammalian two-hybrid assay. […]

CCCCCCCCCCCCCC(=O)O[C@@H]1[C@@H](C)[C@@]2(O)[C@@H](C=C(CO)C[C@]3(O)C(=O)C(C)=C[C@@H]23)[C@@H]2C(C)(C)[C@]12OC(C)=O [PMA, Phorbol 12-myristate 13-acetate]
HDAC5 phosphorylation after treatment of cells with PMA [1]: Increased HDAC5 phosphorylation
stimulation of nuclear export of GFP-HDAC5 ([2]; COS cells transfected with GFP-HDAC5, 60 min after addition of compounds): complete relocalization of GFP-HDAC5 from the nucleus to the cytoplasm; also recorded: stimulated nuclear export of GFP-HDAC5; also recorded: more potent stimulator of export than ionomycin
time to complete HDAC5 nuclear export following addition of PMA ([2]; COS cells, GFP-HDAC5): ≤ 30 min
time to initiation of HDAC5 nuclear export following addition of PMA ([2]; COS cells, GFP-HDAC5): ≤ 15 min
association of 14-3-3 with HDAC5 [3]: enhanced
ANF protein expression [4]: prominent perinuclear ANF protein expression
HDAC5 phosphorylation after PMA, activated PKD S/E co-transfected ([5]; FLAG-HDAC5 + PKD S/E): enhanced phosphorylation of HDAC5
HDAC5 phosphorylation after PMA, wild-type PKD co-transfected ([5]; FLAG-HDAC5 + PKD): increased the degree of HDAC5 phosphorylation

From patent US20050112128A1, “Inhibition of protein kinase c-mu (PKD) as a treatment for cardiac hypertrophy and heart failure” (Myogen, Inc. and Board of Regents, The University of Texas …, priority 2003, published 2005)
